For 18 compounds, IC50 and MTAP intact/deleted ratio results are on record in patent US11999727B2 (Tango Therapeutics, Inc., priority 2020, dated 2024).

pIC50: −log10 of the molar value.

Experiment [1] deals with T1, PRMT5 (Homo sapiens, UniProt O14744).
T1 construct: purchased Viva (custom protein)
The experiment can be described thus: PRMT5 biochemical IC50 assay with no cofactor. The note with it: PRMT5, no cofactor; read-out: No Cofactor/rel IC50. The source says: Table 1 indicates IC50 values (μM) against PRMT5 for exemplary compounds in the presence of SAM as cofactor, with no cofactor, and with MTA as cofactor, respectively (columns 4-6). […] Ki values can be calculated from the IC50 values as described in the Examples section. As detailed in the Examples section, for the assay performed in the presence of SAM, IC50=Ki×1.5 (Ki=IC50/1.5).

The target in experiment [2] is T1, PRMT5. The experiment can be described thus: PRMT5 biochemical IC50 assay with SAM as cofactor. Conditions: PRMT5, SAM as cofactor; read-out: SAM IC50.
The target in experiment [3] is T1, PRMT5. The experiment can be described thus: PRMT5 biochemical IC50 assay with MTA as cofactor. The note with it: PRMT5, MTA as cofactor; read-out: MTA IC50.
The subject of experiment [4] is HAP1 MTAP-intact cell line. The experiment can be described thus: SDMA in-cell western assay, HAP1 MTAP-intact. The format is cell-based. Conditions: Homo sapiens, HAP1, SDMA in-cell western, HAP1 MTAP-intact; read-out: MTAP HAP1 intact IC50. The essentials:
(§1)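 MTAP-null vs endogenous-MTAP HAP1 isogenic cells; in-cell western SDMA readout; IC50 per line.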

The test system of experiment [5] is HAP1 MTAP-deleted cell line. Briefly: Viability assay, MTAP-deleted cell line. Format: cell-based. The note with it: Homo sapiens, HAP1, viability assay, MTAP-deleted cell line; read-out: HAP1 MTAP deleted viability. The source says: Table 1 additionally indicates IC50 values in a viability assay for the MTAP-deleted cell line (column 10), indicating the effect of treatment with compound on cell survival.

In experiment [6] the test system is HAP1 MTAP-deleted cell line. The experiment can be described thus: SDMA in-cell western assay, HAP1 MTAP-deleted. The format is cell-based. The note with it: for pIC50: Homo sapiens, HAP1, SDMA in-cell western, HAP1 MTAP-deleted; for MTAP intact/deleted ratio: SDMA in-cell western. The essentials:
as §1

[7] abbreviates: read-out: HAP 1 MTAP deleted IC50.
Setting [8] is: IC50 ratio HAP1 MTAP-intact / HAP1 MTAP-deleted.
[9] abbreviates: read-out: HAP1 MTAP deleted IC50.
[10] abbreviates: IC50 ratio HAP1 MTAP-intact vs HAP1 MTAP-deleted.

T1 sequence (O14744 whole entry): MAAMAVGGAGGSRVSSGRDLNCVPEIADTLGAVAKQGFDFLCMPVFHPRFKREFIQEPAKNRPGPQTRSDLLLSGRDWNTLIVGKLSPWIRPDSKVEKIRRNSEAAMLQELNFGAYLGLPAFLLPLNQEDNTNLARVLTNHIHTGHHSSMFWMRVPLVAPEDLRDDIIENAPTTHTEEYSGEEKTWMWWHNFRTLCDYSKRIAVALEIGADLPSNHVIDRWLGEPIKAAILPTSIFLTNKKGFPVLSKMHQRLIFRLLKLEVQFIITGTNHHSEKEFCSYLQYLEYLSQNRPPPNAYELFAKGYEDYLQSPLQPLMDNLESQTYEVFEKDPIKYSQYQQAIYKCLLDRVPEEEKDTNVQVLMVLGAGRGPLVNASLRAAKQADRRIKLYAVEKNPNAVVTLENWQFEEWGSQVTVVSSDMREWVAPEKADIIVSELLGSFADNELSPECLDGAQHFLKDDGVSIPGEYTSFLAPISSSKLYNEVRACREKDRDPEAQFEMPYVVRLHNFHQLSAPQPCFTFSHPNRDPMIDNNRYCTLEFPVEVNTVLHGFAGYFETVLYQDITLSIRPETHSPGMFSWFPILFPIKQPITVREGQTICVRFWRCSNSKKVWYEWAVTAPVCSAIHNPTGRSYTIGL
T1 sequence (Q9BQA1 whole entry partner): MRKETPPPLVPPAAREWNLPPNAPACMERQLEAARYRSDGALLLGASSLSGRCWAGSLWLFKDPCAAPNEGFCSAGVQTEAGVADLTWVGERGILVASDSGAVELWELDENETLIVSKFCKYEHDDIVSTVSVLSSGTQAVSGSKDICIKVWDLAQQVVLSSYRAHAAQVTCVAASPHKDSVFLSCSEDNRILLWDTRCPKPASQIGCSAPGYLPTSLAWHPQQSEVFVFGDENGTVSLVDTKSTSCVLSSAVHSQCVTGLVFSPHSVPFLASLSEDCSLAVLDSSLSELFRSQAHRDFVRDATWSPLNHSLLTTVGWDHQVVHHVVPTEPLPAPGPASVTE

For the compound `C[C@@H]1CC[C@@H](c2ccc3sc(C(F)(F)F)nc3c2)N(C(=O)C(=O)Nc2cncc(C(N)=O)c2)C1` (single isomer, unassigned) [Compound 1029], the pIC50 at PRMT5 [1] is less than 6.30; on PRMT5 [2], less than 6.30; at PRMT5 [3] it was less than 6.30; in experiment [4], less than 6.00; in experiment [5], less than 5.00; in experiment [6] (setting [7]), less than 6.00. In addition, the MTAP intact/deleted ratio result in experiment [6] (setting [8]) is reported as “B (an IC50 ratio greater than or equal to 3 fold but lower than 10 fold)”.

With `COc1ncc(NC(=O)C(=O)N2C[C@@H](C)CC[C@@H]2c2cscn2)cc1C(N)=O` (single isomer, unassigned) [Compound 1033], the pIC50 was less than 6.30 on PRMT5 [1]; less than 6.30 on PRMT5 [2]; less than 6.30 on PRMT5 [3]; less than 6.00 in experiment [4]; less than 5.00 in experiment [5]; less than 6.00 in experiment [6] (setting [7]). The MTAP intact/deleted ratio entry in experiment [6] (setting [8]) is reported as “B (an IC50 ratio greater than or equal to 3 fold but lower than 10 fold)”.

Regarding `Cc1cc(NC(=O)C(=O)N2C[C@@H](C)CC[C@@H]2c2ccc3c(cnn3C)c2)cnc1N` (single isomer, unassigned) [Compound 1037], the pIC50 on PRMT5 [1] is less than 6.30; on PRMT5 [2], less than 6.30; on PRMT5 [3] it was less than 6.30; in experiment [4], less than 6.00; in experiment [5] it was less than 5.00; in experiment [6] (setting [7]), 6.00 to 7.00. The MTAP intact/deleted ratio result in experiment [6] (setting [8]) is “A (an IC50 ratio greater than or equal to 10 fold)”.

For the compound `Cc1cc(NC(=O)C(=O)N2C[C@@H](C)CC[C@@H]2c2ccc3nn(C)cc3c2)cnc1N` (single isomer, unassigned) [Compound 1040], the pIC50 on PRMT5 [1] is less than 6.30; at PRMT5 [2], less than 6.30; at PRMT5 [3], less than 6.30; in experiment [4], less than 6.00; in experiment [5], less than 5.00; in experiment [6] (setting [7]), 6.00 to 7.00. In experiment [6] (setting [8]), the MTAP intact/deleted ratio result is “A (an IC50 ratio greater than or equal to 10 fold)”.

On to `COc1ncc(NC(=O)C(=O)N2C[C@H](C)CC[C@H]2c2cscn2)cc1C(N)=O` (single isomer, unassigned) [Compound 1042], for which the pIC50 is 6.30 to 7.30 on PRMT5 [1]; 6.30 to 7.30 at PRMT5 [2]; more than 7.30 on PRMT5 [3]; less than 6.00 in experiment [4]; 5.00 to 6.00 in experiment [5]; more than 7.00 in experiment [6] (setting [7]). Also, the MTAP intact/deleted ratio entry in experiment [6] (setting [8]) is “A (an IC50 ratio greater than or equal to 10 fold)”.

In the case of `Cc1cc(NC(=O)C(=O)N2C[C@H](C)CC[C@H]2c2ccc3nn(C)cc3c2)cnc1N` (single isomer, unassigned) [Compound 1044], the pIC50 on PRMT5 [1] was more than 7.30; on PRMT5 [2] it was 6.30 to 7.30; at PRMT5 [3], more than 7.30; in experiment [4], 6.00 to 7.00; in experiment [5], more than 6.00; in experiment [6] (setting [7]), more than 7.00. The MTAP intact/deleted ratio entry in experiment [6] (setting [8]) is “A (an IC50 ratio greater than or equal to 10 fold)”.

For the compound `Cc1cncc(NC(=O)C(=O)N2C[C@@H](C)CC[C@H]2c2cccc(F)c2)c1` (single isomer, unassigned) [Compound 1080], the pIC50 on PRMT5 [1] is less than 6.30; at PRMT5 [2], less than 6.30; at PRMT5 [3], less than 6.30; in experiment [4], less than 6.00; in experiment [5] it was less than 5.00; in experiment [6] (setting [9]) it was less than 6.00. The MTAP intact/deleted ratio entry in experiment [6] (setting [10]) is reported as “C (an IC50 ratio of less than 3 fold)”.

Turning to `Cc1cc(NC(=O)C(=O)N2C[C@@H](C)CC[C@@H]2c2ccc(N)cc2)cnc1N` (single isomer, unassigned) [Compound 1081], the pIC50 was less than 6.30 at PRMT5 [1]; less than 6.30 on PRMT5 [2]; less than 6.30 at PRMT5 [3]; less than 6.00 in experiment [4]; less than 5.00 in experiment [5]; less than 6.00 in experiment [6] (setting [9]). Moreover, the MTAP intact/deleted ratio entry in experiment [6] (setting [10]) was “B (an IC50 ratio greater than or equal to 3 fold but lower than 10 fold)”.

Take `C[C@@H]1CC[C@@H](c2cc(F)cc(Cl)c2)N(C(=O)C(=O)Nc2cncc(C(N)=O)c2)C1` (single isomer, unassigned) [Compound 1084]: the pIC50 at PRMT5 [1] is less than 6.30; at PRMT5 [2], less than 6.30; on PRMT5 [3], less than 6.30; in experiment [4], less than 6.00; in experiment [5], less than 5.00; in experiment [6] (setting [9]), less than 6.00. Also, the MTAP intact/deleted ratio entry in experiment [6] (setting [10]) is recorded as “C (an IC50 ratio of less than 3 fold)”.

For the compound `Cc1cc(NC(=O)C(=O)N2C[C@H](C)[C@@H](OC(C)C)C[C@H]2c2ccccc2)cnc1N` (single isomer, unassigned) [Compound 1088], the pIC50 on PRMT5 [1] was more than 7.30; at PRMT5 [2], 6.30 to 7.30; at PRMT5 [3] it was more than 7.30; in experiment [4], 6.00 to 7.00; in experiment [5], more than 6.00; in experiment [6] (setting [9]), more than 7.00. Moreover, the MTAP intact/deleted ratio entry in experiment [6] (setting [10]) is on record as “A (an IC50 ratio greater than or equal to 10 fold)”.

As for `CCc1cc(NC(=O)C(=O)N2C[C@H](C)[C@H](OC)C[C@H]2c2ccc(N3CCN(C)CC3)cc2)cnc1N` (single isomer, unassigned) [Compound 1089], the pIC50 on PRMT5 [1] is 6.30 to 7.30; at PRMT5 [2] it was 6.30 to 7.30; on PRMT5 [3] it was more than 7.30; in experiment [4] it was 6.00 to 7.00; in experiment [5] it was more than 6.00; in experiment [6] (setting [9]), more than 7.00. For the same compound, the MTAP intact/deleted ratio result in experiment [6] (setting [10]) was “A (an IC50 ratio greater than or equal to 10 fold)”.

On to `CCc1cc(NC(=O)C(=O)N2C[C@H](C)CC[C@H]2c2ccc(N3CCN(CC)CC3)cc2)cnc1N` (single isomer, unassigned) [Compound 1097], for which the pIC50 is more than 7.30 on PRMT5 [1]; 6.30 to 7.30 at PRMT5 [2]; more than 7.30 at PRMT5 [3]; 6.00 to 7.00 in experiment [4]; more than 6.00 in experiment [5]; more than 7.00 in experiment [6] (setting [9]). Besides, the MTAP intact/deleted ratio entry in experiment [6] (setting [10]) is “A (an IC50 ratio greater than or equal to 10 fold)”.

With `CCc1cc(NC(=O)C(=O)N2C[C@@H](C)CC[C@@H]2c2ccc(N3CCN(C)CC3)nc2)cnc1N` (single isomer, unassigned) [Compound 1103], the pIC50 at PRMT5 [1] is more than 7.30; on PRMT5 [2] it was 6.30 to 7.30; at PRMT5 [3], more than 7.30; in experiment [4], 6.00 to 7.00; in experiment [5], more than 6.00; in experiment [6] (setting [9]) it was more than 7.00. Also, the MTAP intact/deleted ratio entry in experiment [6] (setting [10]) is on record as “A (an IC50 ratio greater than or equal to 10 fold)”.

As to `COc1ncc(NC(=O)C(=O)N2C[C@@H](C)CC[C@@H]2c2ccc3sc(C4CC(C)(C)N(C)C(C)(C)C4)nc3c2)cc1C(N)=O` (single isomer, unassigned) [Compound 1108], the pIC50 on PRMT5 [1] is more than 7.30; at PRMT5 [2], more than 7.30; on PRMT5 [3] it was more than 7.30; in experiment [4], more than 7.00; in experiment [5], more than 6.00; in experiment [6] (setting [9]), more than 7.00. Moreover, the MTAP intact/deleted ratio entry in experiment [6] (setting [10]) is listed as “A (an IC50 ratio greater than or equal to 10 fold)”.

As to `COc1ncc(NC(=O)C(=O)N2C[C@@H](C)CC[C@@H]2c2ccc3sc(C4(CN(C)C)CC4)nc3c2)cc1C(N)=O` (single isomer, unassigned) [Compound 1109], the pIC50 at PRMT5 [1] is more than 7.30; on PRMT5 [2], more than 7.30; at PRMT5 [3], more than 7.30; in experiment [4], 6.00 to 7.00; in experiment [5], more than 6.00; in experiment [6] (setting [9]) it was more than 7.00. Further, the MTAP intact/deleted ratio result in experiment [6] (setting [10]) is listed as “A (an IC50 ratio greater than or equal to 10 fold)”.

Turning to `CCc1cc(NC(=O)C(=O)N2CC(C)CCC2c2ccc(N3CCC4C(CCCN4C)C3)cc2)cnc1N` (single isomer, unassigned) [Compound 1111], the pIC50 on PRMT5 [1] is more than 7.30; at PRMT5 [2] it was 6.30 to 7.30; at PRMT5 [3], more than 7.30; in experiment [4] it was 6.00 to 7.00; in experiment [5] it was more than 6.00; in experiment [6] (setting [9]) it was more than 7.00. Also, the MTAP intact/deleted ratio result in experiment [6] (setting [10]) is reported as “A (an IC50 ratio greater than or equal to 10 fold)”.

Take `CCc1cc(NC(=O)C(=O)N2C[C@H](C)CC[C@H]2c2ccc(N3CCN(C)CC3)cc2)cnc1N` (single isomer, unassigned) [Compound 1116]: the pIC50 on PRMT5 [1] is less than 6.30; on PRMT5 [2], less than 6.30; at PRMT5 [3], less than 6.30; in experiment [4], less than 6.00; in experiment [5] it was less than 5.00; in experiment [6] (setting [9]) it was less than 6.00.

Take `C[C@H]1CC[C@H](c2cccc(Cl)c2)N(C(=O)C(=O)Nc2cnc(N)c(C3CC3)c2)C1` (single isomer, unassigned) [Compound 1119]: the pIC50 at PRMT5 [1] was more than 7.30; at PRMT5 [2], 6.30 to 7.30; on PRMT5 [3] it was more than 7.30; in experiment [4], 6.00 to 7.00; in experiment [5] it was more than 6.00; in experiment [6] (setting [9]) it was more than 7.00. Further, the MTAP intact/deleted ratio entry in experiment [6] (setting [10]) was “A (an IC50 ratio greater than or equal to 10 fold)”.
